In brackets after ≈: the same amount, converted by molar mass. Read-outs that look alike come from different tables or passages of the source.
Key:
Format in all cases: cell-based
Gram + = experiment: MIC test, average over the 5 gram-positive test germs; conditions: 24 h
Experimental: (§1) As to the antibacterial activity, there was determined the Least (Minimum) Inhibiting Concentration (MIC), by working according to the following operative conditions.
(§2) There were used suspensions of test germs (5 gram-positive and 15 gram-negative) having a known titre, kept freezed at -80°C and diluted, at the time of use, in peptonized water up to a concentration of 1-2.10⁷ cfu/ml.
(§3) A few mg of the products, according to the invention were weighed sufficient for preparing parent solutions in DMSO + NaOH (1N) containing 2560 µg/ml (64µg/ml/dish). From the thus prepared parent solutions there were prepared 12 serial dilutions (1:2) down to the concentration of 1.25 µg/ml.
(§4) 0.5 ml of the different dilutions of each product were distributed on dishes containing 19.5 ml of agarized medium (TSA), maintained in a fluid state at the temperature of 50°C. After slight stirring, the dishes were made to solidify and dry under hood (laminar flow).
(§5) The MIC tests (Least or "Minimum" Inhibiting Concentration) were performed by using a Steers multiwell inoculator having 36 wells, each containing 200 µl of bacterial suspension.
(§6) After inoculation, the dishes were placed into a thermostat and checked after 24 h of incubation at 35°C.
(§7) The MIC is defined as the lowermost product concentration (µg/ml) inhibiting the visible growth of the microorganisms.

Gram - = experiment: MIC test, average over the 15 gram-negative test germs; conditions: 24 h
Experimental: as §1, §2, §3, §4, §5, §6, §7

[1] = test system: Escherichia coli ATCC 8739; experiment: MIC test, agar dilution with Steers multiwell inoculator; conditions: ATCC8739, TSA dishes, 24 h at 35°C, read-out: Minimum Inhibiting Concentration
Experimental: as §1, §2, §3, §4, §5, §6, §7

[2] = test system: Pseudomonas aeruginosa CNUR 4; experiment: as above; conditions: CNUR4, TSA dishes, 24 h at 35°C, read-out: Minimum Inhibiting Concentration
Experimental: as §1, §2, §3, §4, §5, §6, §7

[3] = test system: Staphylococcus epidermidis HCF Berset C.; experiment: as above; conditions: TSA dishes, 24 h at 35°C, read-out: Minimum Inhibiting Concentration
Experimental: as §1, §2, §3, §4, §5, §6, §7

[4] = test system: Pseudomonas aeruginosa CNUR 2; experiment: as above; conditions: CNUR2, TSA dishes, 24 h at 35°C, read-out: Minimum Inhibiting Concentration
Experimental: as §1, §2, §3, §4, §5, §6, §7

Shighella enteritidis = experiment: as above; conditions: TSA dishes, 24 h at 35°C, read-out: Minimum Inhibiting Concentration
Experimental: as §1, §2, §3, §4, §5, §6, §7

[5] = test system: Staphylococcus epidermidis CPHL A2; experiment: as above; conditions: CPHLA2, TSA dishes, 24 h at 35°C, read-out: Minimum Inhibiting Concentration
Experimental: as §1, §2, §3, §4, §5, §6, §7

[6] = test system: Pseudomonas aeruginosa ATCC 9027; experiment: as above; conditions: ATCC9027, TSA dishes, 24 h at 35°C, read-out: Minimum Inhibiting Concentration
Experimental: as §1, §2, §3, §4, §5, §6, §7

[7] = test system: Enterobacter cloacae OMNF 1153; experiment: as above; conditions: OMNF1153, TSA dishes, 24 h at 35°C, read-out: Minimum Inhibiting Concentration
Experimental: as §1, §2, §3, §4, §5, §6, §7

[8] = test system: Klebsiella pneumoniae ATCC 10031; experiment: as above; conditions: ATCC10031, TSA dishes, 24 h at 35°C, read-out: Minimum Inhibiting Concentration
Experimental: as §1, §2, §3, §4, §5, §6, §7

[9] = test system: Staphylococcus aureus MPR 5; experiment: as above; conditions: MPR5, TSA dishes, 24 h at 35°C, read-out: Minimum Inhibiting Concentration
Experimental: as §1, §2, §3, §4, §5, §6, §7

[10] = test system: Streptococcus facealis LEP Br.; experiment: as above; conditions: TSA dishes, 24 h at 35°C, read-out: Minimum Inhibiting Concentration
Experimental: as §1, §2, §3, §4, §5, §6, §7

Escherichia coli 120 = experiment: as above; conditions: TSA dishes, 24 h at 35°C, read-out: Minimum Inhibiting Concentration
Experimental: as §1, §2, §3, §4, §5, §6, §7

[11] = test system: Staphylococcus aureus ATCC 6538; experiment: as above; conditions: ATCC6538, TSA dishes, 24 h at 35°C, read-out: Minimum Inhibiting Concentration
Experimental: as §1, §2, §3, §4, §5, §6, §7

[12] = test system: Providencia stuardii CNUR 5; experiment: as above; conditions: CNUR5, TSA dishes, 24 h at 35°C, read-out: Minimum Inhibiting Concentration
Experimental: as §1, §2, §3, §4, §5, §6, §7

Escherichia coli CNUR 8 = experiment: as above; conditions: CNUR8, TSA dishes, 24 h at 35°C, read-out: Minimum Inhibiting Concentration
Experimental: as §1, §2, §3, §4, §5, §6, §7

[13] = test system: Enterobacter cloacae OMNF 1174; experiment: as above; conditions: OMNF1174, TSA dishes, 24 h at 35°C, read-out: Minimum Inhibiting Concentration
Experimental: as §1, §2, §3, §4, §5, §6, §7

Escherichia coli CNUR 1 = experiment: as above; conditions: CNUR1, TSA dishes, 24 h at 35°C, read-out: Minimum Inhibiting Concentration
Experimental: as §1, §2, §3, §4, §5, §6, §7

Escherichia coli ISF 432 = experiment: as above; conditions: ISF432, TSA dishes, 24 h at 35°C, read-out: Minimum Inhibiting Concentration
Experimental: as §1, §2, §3, §4, §5, §6, §7

Proteus vulgaris CNUR 6 = experiment: as above; conditions: CNUR6, TSA dishes, 24 h at 35°C, read-out: Minimum Inhibiting Concentration
Experimental: as §1, §2, §3, §4, §5, §6, §7

[14] = test system: Acinebacter calcoloaceticus OSMPV 1130; experiment: as above; conditions: TSA dishes, 24 h at 35°C, read-out: Minimum Inhibiting Concentration
Experimental: as §1, §2, §3, §4, §5, §6, §7

[15] = geometrical average of the MIC over the 5 Gram + strains, read-out: Geometrical Average
[16] = geometrical average of the MIC over the 15 Gram - strains, read-out: Geometrical Average
[17] = mean log of the MIC over the 15 Gram - strains, read-out: Log (converted)

| Structure (SMILES) | MIC (Gram +; read-out: Log (converted)) | MIC (Gram -; [16]) | MIC (Gram -; [17]) | MIC [1] | MIC [2] | MIC [3] | MIC [4] | MIC (Shighella enteritidis) | MIC [5] | MIC [6] | MIC [7] | MIC [8] | MIC [9] | MIC [10] | MIC (Escherichia coli 120) | MIC [11] | MIC [12] | MIC (Escherichia coli CNUR 8) | MIC [13] | MIC (Escherichia coli CNUR 1) | also measured |
| --- | --- | --- | --- | --- | --- | --- | --- | --- | --- | --- | --- | --- | --- | --- | --- | --- | --- | --- | --- | --- | --- |
| Cc1c(N2CCN(C)CC2)c(N)cc2c(=O)c(C(=O)O)cn(C3CC3)c12 [Compound 33] | 1.15 µg/mL (≈ 3.22 µM) | 0.338 µg/mL (≈ 0.948 µM) | 0.338 µg/mL (≈ 0.948 µM) | 0.06 µg/mL (≈ 0.168 µM) | 16 µg/mL (≈ 44.9 µM) | 0.5 µg/mL (≈ 1.4 µM) | 8 µg/mL (≈ 22.4 µM) | 0.06 µg/mL (≈ 0.168 µM) | 1 µg/mL (≈ 2.81 µM) | 2 µg/mL (≈ 5.61 µM) | 0.25 µg/mL (≈ 0.701 µM) | 0.03 µg/mL (≈ 0.0842 µM) | 1 µg/mL (≈ 2.81 µM) | 8 µg/mL (≈ 22.4 µM) | 0.06 µg/mL (≈ 0.168 µM) | 0.5 µg/mL (≈ 1.4 µM) | 2 µg/mL (≈ 5.61 µM) | 0.06 µg/mL (≈ 0.168 µM) | 0.06 µg/mL (≈ 0.168 µM) | 0.06 µg/mL (≈ 0.168 µM) | MIC (Gram +; [15]): 1.15 µg/mL; MIC (Escherichia coli ISF 432): 0.03 µg/mL (≈ 0.0842 µM); MIC (Proteus vulgaris CNUR 6): 8 µg/mL (≈ 22.4 µM); MIC [14]: 2 µg/mL (≈ 5.61 µM) |
| Nc1cc2c(=O)c(C(=O)O)cn(C3CC3)c2cc1N1CCSCC1 [Compound 15] | 1.32 µg/mL (≈ 3.82 µM) | 0.748 µg/mL (≈ 2.17 µM) | 0.748 µg/mL (≈ 2.17 µM) | 0.03 µg/mL (≈ 0.0868 µM) | 128 µg/mL (≈ 371 µM) | 2 µg/mL (≈ 5.79 µM) | 16 µg/mL (≈ 46.3 µM) | 0.5 µg/mL (≈ 1.45 µM) | 1 µg/mL (≈ 2.89 µM) | 2 µg/mL (≈ 5.79 µM) | 0.5 µg/mL (≈ 1.45 µM) | 0.03 µg/mL (≈ 0.0868 µM) | 0.5 µg/mL (≈ 1.45 µM) | 8 µg/mL (≈ 23.2 µM) | 0.12 µg/mL (≈ 0.347 µM) | 0.5 µg/mL (≈ 1.45 µM) | 1 µg/mL (≈ 2.89 µM) | 0.12 µg/mL (≈ 0.347 µM) | 0.5 µg/mL (≈ 1.45 µM) | 0.5 µg/mL (≈ 1.45 µM) | MIC (Gram +; [15]): 1.32 µg/mL; MIC (Escherichia coli ISF 432): 0.03 µg/mL (≈ 0.0868 µM); MIC (Proteus vulgaris CNUR 6): 128 µg/mL (≈ 371 µM); MIC [14]: 1 µg/mL (≈ 2.89 µM) |
| CN1CCN(c2c(N)cc3c(=O)c(C(=O)O)cn(C4CC4)c3c2F)CC1 [Compound 22] | 8 µg/mL (≈ 22.2 µM) | 0.783 µg/mL (≈ 2.17 µM) | 0.783 µg/mL (≈ 2.17 µM) | 1 µg/mL (≈ 2.77 µM) | 32 µg/mL (≈ 88.8 µM) | 8 µg/mL (≈ 22.2 µM) | 8 µg/mL (≈ 22.2 µM) | 0.25 µg/mL (≈ 0.694 µM) | 4 µg/mL (≈ 11.1 µM) | 2 µg/mL (≈ 5.55 µM) | 0.25 µg/mL (≈ 0.694 µM) | 0.06 µg/mL (≈ 0.166 µM) | 4 µg/mL (≈ 11.1 µM) | 64 µg/mL (≈ 178 µM) | 0.06 µg/mL (≈ 0.166 µM) | 4 µg/mL (≈ 11.1 µM) | 4 µg/mL (≈ 11.1 µM) | 0.12 µg/mL (≈ 0.333 µM) | 0.25 µg/mL (≈ 0.694 µM) | 0.12 µg/mL (≈ 0.333 µM) | MIC (Escherichia coli ISF 432): 0.06 µg/mL (≈ 0.166 µM); MIC (Proteus vulgaris CNUR 6): 32 µg/mL (≈ 88.8 µM); MIC [14]: 8 µg/mL (≈ 22.2 µM) |
| CN1CCN(c2cc3c(cc2N)c(=O)c(C(=O)O)cn3C(C)(C)C)CC1 [Compound 44, 6-amino-1-terbutyl-7-(4-methyl-1-piperazinyl)-1,4-dihidro-4-oxo-quinoline carboxylic acid] | 4 µg/mL (≈ 11.2 µM) | 1.73 µg/mL (≈ 4.82 µM) | 1.73 µg/mL (≈ 4.81 µM) | 0.06 µg/mL (≈ 0.167 µM) | 128 µg/mL (≈ 357 µM) | 4 µg/mL (≈ 11.2 µM) | 32 µg/mL (≈ 89.3 µM) | 1 µg/mL (≈ 2.79 µM) | 2 µg/mL (≈ 5.58 µM) | 4 µg/mL (≈ 11.2 µM) | 2 µg/mL (≈ 5.58 µM) | 0.06 µg/mL (≈ 0.167 µM) | 2 µg/mL (≈ 5.58 µM) | 32 µg/mL (≈ 89.3 µM) | 0.5 µg/mL (≈ 1.39 µM) | 2 µg/mL (≈ 5.58 µM) | 4 µg/mL (≈ 11.2 µM) | 0.5 µg/mL (≈ 1.39 µM) | 1 µg/mL (≈ 2.79 µM) | 1 µg/mL (≈ 2.79 µM) | MIC (Escherichia coli ISF 432): 0.06 µg/mL (≈ 0.167 µM); MIC (Proteus vulgaris CNUR 6): 128 µg/mL (≈ 357 µM); MIC [14]: 4 µg/mL (≈ 11.2 µM) |

Source: patent EP0531958A1, “6-Aminoquinolones, their synthesis and their use as antibacterial agents” (MEDIOLANUM FARMACEUTICI S.P.A., priority 1991, dated 1993)
